Where two headings read alike, the source gives them in different places.
B1: mepolizumab: eosinophil lowering drug; monoclonal antibody administered subcutaneously for asthma (antibody, chains of the INN, looked up, V domains shown)
VH: QVTLRESGPALVKPTQTLTLTCTVSGFSLTSYSVHWVRQPPGKGLEWLGVIWASGGTDYNSALMSRLSISKDTSRNQVVLTMTNMDPVDTATYYCARDPPSSLLRLDYWGRGTPVTVSS
VL: DIVMTQSPDSLAVSLGERATINCKSSQSLLNSGNQKNYLAWYQQKPGQPPKLLIYGASTRESGVPDRFSGSGSGTDFTLTISSLQAEDVAVYYCQNVHSFPFTFGGGTKLEIK

Legend:
[1] = test system: subjects with eosinophilic chronic rhinosinusitis with nasal polyps; details: cited from earlier work; for total polyp score (TPS), mean value: baseline 5.29
[2] = test system: moderate to severe asthma; assay: Phase II dose finding study in moderate to severe asthma (EXHALE)
[3] = test system: Chronic rhinosinusitis with nasal polyps; details: in vivo; cited from earlier work
[4] = 150 mg twice daily, 6 month trial
[5] = 150 mg twice daily, 12 subjects with a history of asthma

| Molecule | total polyp score (TPS), mean value ([1]; 150 mg twice daily, 3 months) | SNOT-22 (rhinosinusitis symptoms) [1, 4] | Sniffin Sticks olfaction test [1, 4] | sinus CT score [1, 4] | total polyp score (TPS), mean value ([1]; 150 mg twice daily, 6 months) | ACQ6 value [1, 5] | FEV1 value [1, 5] | lowering of the AEC (blood absolute eosinophil count) ([1]; dexpramipexole 150 mg twice daily, after 6 months, 16 subjects) [%] | safety and tolerability profile ([2]; Phase II, compared with placebo) | eosinophils in blood and airways ([2]; Phase II, moderate to severe asthma) | placebo-corrected change from baseline in pre-bronchodilator (pre-BD) FEV1 ([2]; across the dose groups at various timepoints) | efficacy in chronic rhinosinusitis with nasal polyps [3] |
| --- | --- | --- | --- | --- | --- | --- | --- | --- | --- | --- | --- | --- |
| CCCN[C@@H]1CCc2nc(N)sc2C1 [dexpramipexole, (6R)-2-amino-4,5,6,7-tetrahydro-6-(propylamino)benzothiazole] | 5.50 | not improved | not improved | not improved | 5.42 | unchanged | unchanged | 94 | tolerability profile of dexpramipexole in this Phase II study was similar to | significant, dose-dependent, and durable reductions | clinically meaningful, placebo-corrected, change from baseline in pre- |  |
| B1 |  |  |  |  |  |  |  |  |  |  |  | have shown efficacy |

Reference: patent US20250205206A1, “USE OF DEXPRAMIPEXOLE FOR THE TREATMENT OF INADEQUATELY CONTROLLED MODERATE TO SEVERE ASTHMA” (Areteia Therapeutics, Inc., priority 2023, published 2025)
